In US10821127B2, “Composition for inhibiting myeloid-derived suppressor cells comprising decitabine or its pharmaceutically acceptable salt as active ingredient” (SNU R&DB Foundation, priority 2015, dated 2020):

What was measured:
MDSC = conditions: preclinical model; gemcitabine: spleen of tumor-induced mice (Clin Cancer Res 2005; 11: 6713-6721); cited from earlier work
[1] = system: colon cancer cell line MC38 expressing a human CEA gene; format: in vivo, mouse; conditions: every 2 days, total of 10 times
Protocol: (§1) 150 μl PBS including a colon cancer cell line MC38 1.5×10^6 expressing a human CEA gene was injected hypodermically to the right flank of a 7 to 8-week-old female B6 mouse to form a tumor. The mouse was bred in a Seoul National University laboratory under a temperature of 23.5±1° C. and a humidity of 50±5% in a light/dark cycle of 12 hours. All animal experiments followed the guideline of the Animal Ethics Committee of Seoul National University.
It was verified whether decitabine was usable as an anticancer chemotherapy through immune treatment based on a bone marrow-based specific drug effect. First, in order to verify an effect of the decitabine on the tumorigenic mice, the decitabine was administrated to the tumorigenic mice prepared in Example 1 and then changes in tumor size and survival rate were measured.
Particularly, in the tumorigenic mice prepared in Example 1, decitabine (DAC) at a concentration of 40 mg/ml purchased from Sigma Co., Ltd. was diluted with 100 μl PBS to be 0, 0.125, 0.25, 0.5, and 1 mg/kg per mouse and then administrated in the right abdominal cavity (every 2 days and a total of 10 times) for each concentration to verify the tumor size and the survival rate. The tumor size was calculated by the following Equation after measuring a width and a length of a tumor mass at an interval of 2 to 3 days from the time when 10 days elapsed after injecting tumor cells: Long length×short length×short length/2. In the survival rate, the number of surviving mice in each group was calculated by the following Equation: The number of surviving mice/a total number of mice×100

[2] = system: cells in the spleen and the bone marrow; assay: Number of cells in spleen and bone marrow of tumorigenic mice, trypan blue staining (Example 3); format: in vivo, mouse; conditions: intraperitoneal, every 2 days, 10 times; for number of bone marrow cells: 0, 0.25, 0.5 mg/kg, FIG. 2 right
Protocol: as §1
It was well-known that gemcitabine suppressed myeloid-derived suppressor cells (MDSC) derived from the tumor (Clin Cancer Res 2005; 11(18) Sep. 15, 2005), and the gemcitabine has been used as an anticancer chemotherapeutic agent. Accordingly, whether the decitabine is usable as an anticancer chemotherapeutic agent like the gemcitabine was verified through the comparison with the gemcitabine. First, in order to verify effects of decitabine and gemcitabine on cells in the spleen and the bone marrow, the decitabine and the gemcitabine were administrated to the tumorigenic mice prepared in Example 1 and then the number of cells in the spleen and the bone marrow was measured.
(§2) Particularly, in the tumorigenic mice prepared in Example 1, decitabine (DAC) or gemcitabine (GEM) were diluted with 100 μl PBS to be 0, 0.25, 0.5 mg/kg per mouse, administrated in the right abdominal cavity (every 2 days and a total of 10 times) for each concentration, and then sacrificed to extract the spleen and the bone marrow. Thereafter, spleen cells and bone marrow cells were extracted and stained by a trypan blue staining method and then the number of cells was measured by using a hematocytometer.

[3] = system: immune cells in the spleen; assay: Number of immune cells in spleen of tumorigenic mice, flow cytometer (Example 4-1); format: in vivo, mouse; conditions: for T cell populations CD3+, CD3+CD4+, CD3+CD8+ in the spleen: 0, 0.25, 0.5 mg/kg intraperitoneal, FIG. 3
Protocol: as §2
(§3) In order to verify effects of decitabine and gemcitabine on immune cells in the spleen, the decitabine and the gemcitabine were administrated to the tumorigenic mice prepared in Example 1 and then the numbers of cells in a T cell population, a B cell population, an NK cell population, an NKT cell population, and a myeloid-based cell population in the spleen were measured.
(§4) Particularly, by the method disclosed in Example 3, decitabine (DAC) or gemcitabine (GEM) was administrated and then the spleen was extracted. Thereafter, each immune cell population were stained with fluorescence-bound antibodies purchased by BD Corporation and then the number of cells was measured through a flow cytometer.
In order to measure the number of cells in the T cell population, an anti-CD3 antibody, an anti-CD4 antibody, and an anti-CD8 antibody were used (FIG. 3).
In order to the number of cells in the B cell population, an anti-B220 antibody was used. Further, in order to measure the number of cells in the NK and NKT cell populations, anti-CD3 and anti-NK1.1 antibodies were used (FIG. 4).
In order to measure the number of cells in the myeloid-based cell population, an anti-CD11b antibody and an anti-CD11c antibody were used (FIG. 5).

[4] = system: granulocytic, monokaryotic and MDSC cell populations in the spleen; assay: Number of cells of subpopulations of myeloid-based cell population in spleen of tumorigenic mice (Example 4-2); format: in vivo, mouse
Protocol: as §2
(§5) In order to verify an effect of decitabine or gemcitabine on cells of a subpopulation of myeloid-based cell populations in the spleen and the bone marrow, decitabine and gemcitabine were administrated to the tumorigenic mice prepared in Example 1 and then the numbers of cells in a granulocytic cell population, a monokaryotic cell population, and an MDSC cell population were measured.
as §4, with “Thereafter, monokaryotic and granulocytic” for “Thereafter, each immune”, “cell populations” for “cell population”, “the numbers” for “the number”, “cells were” for “cells was”
In order to measure the numbers of cell in the monokaryotic cell population and the granulocytic cell population, anti-CD11b, anti-F480 and anti-Gr1 antibodies were used (FIG. 6).
In order to measure the number of cells of the subpopulation of the MDSC cell population, anti-CD11b, anti-Ly6c and anti-Ly6g antibodies were used (FIG. 7).

[5] = system: immune cells in the bone marrow; assay: Number of immune cells in bone marrow of tumorigenic mice, flow cytometer (Example 5-1); format: in vivo, mouse; conditions: for number of T cell populations CD3+ and CD3+CD4+ in the bone marrow: FIG. 8
Protocol: as §2
as §3, with “bone marrow,” for “spleen,”, “bone marrow” for “spleen”
(§6) Particularly, by the method disclosed in Example 3, decitabine (DAC) or gemcitabine (GEM) was administrated and then the bone marrow was extracted. Thereafter, the bone marrow was stained by using the antibodies disclosed in Example 4-1, and then the number of cells was measured through a flow cytometer (FIGS. 8 to 10).

[6] = system: granulocytic, monokaryotic and MDSC cell populations in the bone marrow; assay: Number of cells of subpopulations of myeloid-based cell population in bone marrow of tumorigenic mice (Example 5-2); format: in vivo, mouse
Protocol: as §2
as §5, with “populations in the bone” for “populations in the spleen and the bone”, “cell population in the bone marrow were measured.” for “cell population were measured.”
as §6, with “4-2,” for “4-1,”, “11” for “8”, “12).” for “10).”

MDSC cell population = assay: In vitro apoptosis of MDSC cell population, bone marrow stem cells co-cultured with MC38 in Transwell (Example 6); format: cell-based, mouse; conditions: 50 nM, as compared with the gemcitabine; FIG. 13
Protocol: In order to verify effects of decitabine and gemcitabine on apoptosis of an MDSC cell population, the decitabine or the gemcitabine was treated in vitro and then a change in the number of cells in the MDSC cell population was measured.
Particularly, from the tumorigenic mice prepared in Example 1, the bone marrow was extracted and then bone marrow stem cells were isolated. Thereafter, while the bone marrow stem cells in a bottom well and cells of a colon cancer cell line MC38 expressing a CEA gene were co-cultured in an insert well […] with a DMEM culture medium by using a Transwell system, the decitabine and the gemcitabine of concentrations of 50 nM were treated at a third day after cell culture, respectively, and then cells after two days were collected. Thereafter, in order to measure the numbers of cells in the myeloid-based cell population and the MDSC cell population, the cell populations were stained by using an anti-CD11b antibody and an anti-GR1 antibody and then the number of cells was measured through a flow cytometer.

IL-6 = assay: Cytokine expression in tumor cells after decitabine treatment, PCR (Example 7): IL-6; format: cell-based; conditions: MC38 expressing the CEA gene, 0, 10, 100 nM, 48 hours; FIG. 14
Protocol: (§7) In order to verify a possibility of a result that the MDSC creation itself in the bone marrow is decreased by the tumor cells, in addition to a direct apoptotic effect of the MDSC by the reduction of the MDSC cell population caused by the decitabine, an expression change in cytokines inducing the creation of the MDSC cell population after treating the decitabine in the tumor cells was measured.
(§8) Particularly, the decitabine was treated in each well for each concentration 0, 10, 100 nM in a colon cancer cell line MC38 expressing the CEA gene which was cultured for 1 week in a 6-well plate and cultured for 48 hours, and then the cells were collected. Thereafter, from the collected cells, total RNA was isolated by using a trizol reagent (Invitrogen, Carlsbad, Calif.) and then the isolated RNA 5 μg reacted with reverse transcriptase for 1 hour at 42° C. to synthesize a cDNA and 5 minutes at 95° C. to inactivate the enzyme. Polymerase chain reaction (PCR) was performed by using a primer in the following Table 1 by using the cDNA as a template of PCR and a PCR product was electrophoresed with an agarose gel and visualized to confirm expression of IL-6, IFN-γ and VEGF genes.

IFN-γ = assay: Cytokine expression in tumor cells after decitabine treatment, PCR (Example 7): IFN-γ; format: cell-based; conditions: MC38 expressing the CEA gene, 0, 10, 100 nM, 48 hours; FIG. 14
Protocol: as §7, §8

VEGF = assay: Cytokine expression in tumor cells after decitabine treatment, PCR (Example 7): VEGF; format: cell-based; conditions: MC38 expressing the CEA gene, 0, 10, 100 nM, 48 hours; FIG. 14
Protocol: as §7, §8

[7] = system: myeloid-derived suppressor cells; assay: Dose with MDSC suppression effect in tumorigenic mice; format: in vivo
Protocol: In the preferred embodiment of the present invention, the inventors verified that in order to verify whether the decitabine suppresses the myeloid-derived suppressor cells produced from the bone marrow by the tumor, tumorigenic mice were prepared and the decitabine was administrated for each concentration, and as a result, an effect of suppressing the myeloid-derived suppressor cells by the decitabine is excellent in a dose range of 0.5 to 1 mg/kg.
Accordingly, through Examples 1 to 8, it was verified that the decitabine had excellent effects of suppressing the MDSC and inducing the apoptosis as compared with the gemcitabine and may enhance the effect of a cancer immunotherapy. Further, when the decitabine has an excellent MDSC suppression effect at 0.5 mg/kg and a fifth part to a tenth part of an effective dose (5.25 mg/kg/once, 34 mg/kg/cycle) applied to an actual patient is compared with an effective dose of 120 mg/kg at which the gemcitabine has the MDSC suppression effect, it was verified that the effective dose is a low concentration of a hundredth part or more.

[8] = system: myeloid-derived suppressor cells; conditions: gemcitabine comparison dose; cited from earlier work
[9] = 0, 0.125, 0.25, 0.5, 1 mg/kg, right abdominal cavity, FIG. 1
[10] = at a lower concentration than gemcitabine, FIG. 4
[11] = similarly to the gemcitabine, FIG. 6
[12] = compared with the gemcitabine, FIG. 11

Compound: O=c1[nH]cc(F)c(=O)[nH]1 [5-FU, 5-fluorouracil]
- number of MDSC (MDSC): significantly reduces

Compound: Nc1ncn([C@H]2C[C@H](O)[C@@H](CO)O2)c(=O)n1 [decitabine, 5-aza-2′-deoxycytidine]
- survival rate [1, 9]: no difference
- tumor size [1, 9]: no difference
- toxicity induction by repeated administration ([1]; up to 1 mg/kg): exclude a toxicity induction possibility
- number of bone marrow cells [2]: not significantly exhibited
- number of spleen cells ([2]; dose concentration 0.5 mg/kg, FIG. 2 left): significantly reduced
- T cell populations CD3+, CD3+CD4+, CD3+CD8+ in the spleen [3]: slight
- NKT cell population CD3+NK1.1+ in the spleen, significant change ([3]; FIG. 4): not induced
- myeloid-based cell populations CD11b+ and CD11c+ in the spleen ([3]; as compared with the gemcitabine, FIG. 5): rapid reduction
- B cell population B220+ in the spleen [3, 10]: reduction
- NK cell population CD3-NK1.1+ in the spleen [3, 10]: reduction
- granulocytic cell population CD11b+F480-Gr1hi in the spleen [4, 11]: rapid reduction
- monokaryotic cell population CD11b+F480+Gr1- in the spleen [4, 11]: rapid reduction
- subpopulations CD11b+Ly6c+Ly6g+, CD11b+Ly6chi of the MDSC cell population in the spleen ([4]; to the degree of similar to or higher than the gemcitabine, FIG. 7): rapid reduction
- number of T cell populations CD3+ and CD3+CD4+ in the bone marrow [5]: increased
- NK cell population CD3-NK1.1+ in the bone marrow, significant changes ([5]; FIG. 9): not induced
- NKT cell population CD3+NK1.1+ in the bone marrow, significant changes ([5]; FIG. 9): not induced
- B cell population B220+ in the bone marrow ([5]; as compared with the gemcitabine, FIG. 9): reduction
- myeloid-based cell populations CD11b+ and CD11c+ in the bone marrow ([5]; as compared with the gemcitabine, FIG. 10): rapid reduction
- granulocytic cell population CD11b+F480-Gr1hi in the bone marrow [6, 12]: more rapid reduction
- monokaryotic cell population CD11b+F480+Gr1- in the bone marrow [6, 12]: more rapid reduction
- subpopulations CD11b+Ly6c+Ly6g+ and CD11b+Ly6chi of the MDSC cell population in the bone marrow ([6]; to a much higher degree than the gemcitabine, FIG. 12): rapid reduction
- number of cells in the MDSC cell population in vitro (MDSC cell population): rapid reduction
- creation degree (expression) of IL-6 in the tumor (IL-6): reduced
- creation degree (expression) of IFN-γ in the tumor (IFN-γ): reduced
- creation degree (expression) of VEGF in the tumor (VEGF): reduced
- dose with excellent MDSC suppression effect [7]: 0.5 mg/kg

Compound: Nc1ccn([C@@H]2O[C@H](CO)[C@@H](O)C2(F)F)c(=O)n1 [gemcitabine]
- number of bone marrow cells [2]: increased in a concentration-dependent manner
- T cell populations CD3+, CD3+CD4+, CD3+CD8+ in the spleen [3]: rapid reduction
- number of T cell populations CD3+ and CD3+CD4+ in the bone marrow [5]: increased
- effective dose with MDSC suppression effect [8]: 120 mg/kg
- number of MDSC (MDSC): significantly reduces
